Where two headings read alike, the source gives them in different places.
Biological target: human activated kallikrein enzyme (plasma kallikrein) (Homo sapiens (Human), UniProt P03952)
Experiment: Inhibition of human activated plasma kallikrein, fluorogenic peptide substrate assay, 500 pM enzyme format
Type: biochemical
Conditions: read-out: Primary Dose Response Assay: Average EC50
In short: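 Buffer 20 mM Tris pH 7.5, EDTA, NaCl, PEG-400, Triton X-100; 300 uM Pro-Phe-Arg-AMC; enzyme–inhibitor preincubation 30 min RT. Format one: 500 pM kallikrein, 10 min RT reaction; format two: 5 pM kallikrein, 18 h RT reaction. Fluorescence read at 460 nm (380 nm excitation).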

[1] = 500 pM activated kallikrein enzyme, 300 uM Pro-Phe-Arg-7-amido-4-methylcoumarin substrate, 30 min preincubation, 10 min at RT
[2] = comparative compounds (Table II), assay format with 500 pM (500 μM in the source) activated kallikrein

Chain of human activated kallikrein enzyme (plasma kallikrein) (P03952 391-638): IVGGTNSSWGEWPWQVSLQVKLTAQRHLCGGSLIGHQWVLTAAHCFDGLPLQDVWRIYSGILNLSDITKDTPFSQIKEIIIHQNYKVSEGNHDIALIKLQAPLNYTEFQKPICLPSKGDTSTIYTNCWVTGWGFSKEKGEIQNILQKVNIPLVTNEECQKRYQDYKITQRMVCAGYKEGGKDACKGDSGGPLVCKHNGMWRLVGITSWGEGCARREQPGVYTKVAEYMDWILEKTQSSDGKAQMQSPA
Chain of human activated kallikrein enzyme (plasma kallikrein) (P03952 20-390 partner): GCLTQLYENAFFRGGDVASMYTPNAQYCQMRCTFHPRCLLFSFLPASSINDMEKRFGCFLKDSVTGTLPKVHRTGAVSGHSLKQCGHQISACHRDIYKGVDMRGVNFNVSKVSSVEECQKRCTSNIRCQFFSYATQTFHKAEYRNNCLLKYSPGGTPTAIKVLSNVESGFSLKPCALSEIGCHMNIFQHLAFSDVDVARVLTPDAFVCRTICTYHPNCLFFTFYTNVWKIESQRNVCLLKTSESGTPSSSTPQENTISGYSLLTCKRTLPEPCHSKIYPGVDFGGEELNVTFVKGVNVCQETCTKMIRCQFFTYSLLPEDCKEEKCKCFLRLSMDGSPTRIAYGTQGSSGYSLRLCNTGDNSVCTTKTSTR

SMILES | EC50 [1] | EC50 [2]
O=C(NCc1ncn2ccc(Cl)c(F)c12)c1nnn(Cc2cn3nc(C4CC4)ccc3n2)n1 [Example I-289, N-((7-chloro-8-fluoroimidazo[1,5-a]pyridin-1-yl)methyl)-2-((6-cyclopropylimidazo[1,2-b]pyridazin-2-yl)methyl)-2H-tetrazole-5-carboxamide] | < 1 nM | –
O=C(NCc1ncn2ccc(Cl)c(F)c12)c1cn(Cc2cn3ncccc3n2)nn1 [Example I-290, N-((7-chloro-8-fluoroimidazo[1,5-a]pyridin-1-yl)methyl)-1-(imidazo[1,2-b]pyridazin-2-ylmethyl)-1H-1,2,3-triazole-4-carboxamide] | 10 to 100 nM | –
O=C(NCc1ncn2ccc(Cl)c(F)c12)c1cn(Cc2cn3ncccc3n2)cn1 [Example I-291, N-((7-chloro-8-fluoroimidazo[1,5-a]pyridin-1-yl)methyl)-1-(imidazo[1,2-b]pyridazin-2-ylmethyl)-1H-imidazole-4-carboxamide] | 10 to 100 nM | –
O=C(NCc1ncn2ccc(Cl)c(F)c12)c1cnn(Cc2ccc3nccnc3c2)c1 [Example I-293, N-((7-chloro-8-fluoroimidazo[1,5-a]pyridin-1-yl)methyl)-1-(quinoxalin-6-ylmethyl)-1H-pyrazole-4-carboxamide] | 10 to 100 nM | –
O=C(NCc1ncn2ccc(Cl)c(F)c12)c1cn(Cc2cn3nccc(-n4cnnc4)c3n2)nn1 [Example I-294, 1-((8-(4H-1,2,4-triazol-4-yl)imidazo[1,2-b]pyridazin-2-yl)methyl)-N-((7-chloro-8-fluoroimidazo[1,5-a]pyridin-1-yl)methyl)-1H-1,2,3-triazole-4-carboxamide] | 10 to 100 nM | –
O=C(NCc1ncn2ccc(Cl)c(F)c12)c1cn(Cc2cn3cc(C4CC4)cc(CN4CCCC4)c3n2)nn1 [Example I-295, N-((7-chloro-8-fluoroimidazo[1,5-a]pyridin-1-yl)methyl)-1-((6-cyclopropyl-8-(pyrrolidin-1-ylmethyl)imidazo[1,2-a]pyridin-2-yl)methyl)-1H-1,2,3-triazole-4-carboxamide] | < 1 nM | –
O=C(NCc1ncn2ccc(Cl)c(F)c12)c1cn(Cc2cn3nccc(CC4COC4)c3n2)nn1 [Example I-296, N-((7-chloro-8-fluoroimidazo[1,5-a]pyridin-1-yl)methyl)-1-((8-(oxetan-3-ylmethyl)imidazo[1,2-b]pyridazin-2-yl)methyl)-1H-1,2,3-triazole-4-carboxamide] | 10 to 100 nM | –
O=C(NCc1ncn2ccc(Cl)c(F)c12)c1cn(Cc2cn3ccccc3n2)cn1 [Example I-297, N-((7-chloro-8-fluoroimidazo[1,5-a]pyridin-1-yl)methyl)-1-(imidazo[1,2-a]pyridin-2-ylmethyl)-1H-imidazole-4-carboxamide] | 10 to 100 nM | –
NCc1cc(C2CC2)cn2cc(Cn3cc(C(=O)NCc4ncn5ccc(Cl)c(F)c45)nn3)nc12 [Example I-298, 1-((8-(aminomethyl)-6-cyclopropylimidazo[1,2-a]pyridin-2-yl)methyl)-N-((7-chloro-8-fluoroimidazo[1,5-a]pyridin-1-yl)methyl)-1H-1,2,3-triazole-4-carboxamide] | < 1 nM | –
CN(C)CCOCc1cc(C2CC2)cn2cc(Cn3cc(C(=O)NCc4ncn5ccc(Cl)c(F)c45)nn3)nc12 [Example I-299, N-((7-chloro-8-fluoroimidazo[1,5-a]pyridin-1-yl)methyl)-1-((6-cyclopropyl-8-((2-(dimethylamino)ethoxy)methyl)imidazo[1,2-a]pyridin-2-yl)methyl)-1H-1,2,3-triazole-4-carboxamide] | < 1 nM | –
O=C(NCc1ncn2ccc(Cl)c(F)c12)c1cn(Cc2cn3cc(C4CC4)cc(CNCC(O)C(F)(F)F)c3n2)nn1 (stereo not shown) [Example I-300, N-((7-chloro-8-fluoroimidazo[1,5-a]pyridin-1-yl)methyl)-1-((6-cyclopropyl-8-(((3,3,3-trifluoro-2-hydroxypropyl)amino)methyl)imidazo[1,2-a]pyridin-2-yl)methyl)-1H-1,2,3-triazole-4-carboxamide] | < 1 nM | –
O=C(NCc1ncn2ccc(Cl)c(F)c12)c1cn(Cc2cn3cc(C4CC4)cc(COCCO)c3n2)nn1 [Example I-301, N-((7-chloro-8-fluoroimidazo[1,5-a]pyridin-1-yl)methyl)-1-((6-cyclopropyl-8-((2-hydroxyethoxy)methyl)imidazo[1,2-a]pyridin-2-yl)methyl)-1H-1,2,3-triazole-4-carboxamide] | < 1 nM | –
NCCOCc1cc(C2CC2)cn2cc(Cn3cc(C(=O)NCc4ncn5ccc(Cl)c(F)c45)nn3)nc12 [Example I-302, 1-((8-((2-aminoethoxy)methyl)-6-cyclopropylimidazo[1,2-a]pyridin-2-yl)methyl)-N-((7-chloro-8-fluoroimidazo[1,5-a]pyridin-1-yl)methyl)-1H-1,2,3-triazole-4-carboxamide] | < 1 nM | –
O=C(NCc1ncn2ccc(Br)cc12)c1cn(Cc2cn3cc(C4CC4)ccc3n2)nn1 [Example I-303, N-((7-bromoimidazo[1,5-a]pyridin-1-yl)methyl)-1-((6-cyclopropylimidazo[1,2-a]pyridin-2-yl)methyl)-1H-1,2,3-triazole-4-carboxamide] | < 1 nM | –
O=C(NCc1ncn2ccc(Cl)cc12)c1ccnc(Cc2ccc3ncc(Cl)cc3c2)c1 [drawing 399, reference compound] | – | 10 to 100 nM
O=C(NCc1ncn2ccc(C3CC3)cc12)c1cnn(Cc2cn3cc(C4CC4)ccc3n2)c1 [drawing 403, reference compound] | – | 100 to 2000 nM
COCc1nn(Cc2ccc(Cn3ccccc3=O)cc2)cc1C(=O)NCc1c(F)ccc(OC)c1F [reference compound] | – | 10 to 100 nM
COCc1nn(Cc2ccc(N3CCCC3)nc2)cc1C(=O)NCc1c(-n2cnnn2)ccc(OC)c1F [reference compound] | – | 1 to 10 nM
COCc1nn(Cc2ccc(Cn3ccccc3=O)cc2)cc1C(=O)NCc1c(C#N)ccc(OC)c1F [reference compound] | – | 1 to 10 nM
O=C(NCc1nsc2ccc(Cl)cc12)c1cnn(Cc2cn3cc(C4CC4)ccc3n2)c1 [reference compound] | – | 10 to 100 nM
O=C(NCc1nnc2ccc(Cl)cn12)c1cnn(Cc2cn3cc(C4CC4)ccc3n2)c1 [reference compound] | – | 100 to 2000 nM
Cc1ccc2nc(Cn3cc(C(=O)NCc4cnc5ccc(Cl)cn45)cn3)cn2c1 [reference compound] | – | 100 to 2000 nM

Reference: patent US10730874B2 (Shire Human Genetic Therapies, Inc., priority 2018, dated 2020)
